Measured values: ChEMBL document CHEMBL4507284, “Data for DCP probe BI-1230” (2021)

Key:
[1] = target: Ephrin type-B receptor 6 (Homo sapiens) (UniProt O15197); settings: Compound concentration 1000.0 nM
[2] = target: Serine/threonine-protein kinase 10 (Homo sapiens) (UniProt O94804); settings: Compound concentration 1000.0 nM
[3] = system: Proto-oncogene tyrosine-protein kinase receptor Ret (Homo sapiens), P07949 [V804L]; settings: Compound concentration 1000.0 nM
[4] = target: Serine/threonine-protein kinase Sgk1 (Homo sapiens) (UniProt O00141); settings: Compound concentration 1000.0 nM
[5] = target: Ribosomal protein S6 kinase alpha-5 (Homo sapiens) (UniProt O75582); settings: Compound concentration 1000.0 nM
[6] = target: Serine/threonine-protein kinase WNK3 (Homo sapiens) (UniProt Q9BYP7); settings: Compound concentration 1000.0 nM
[7] = target: Membrane-associated tyrosine- and threonine-specific cdc2-inhibitory kinase (Homo sapiens) (UniProt Q99640); settings: Compound concentration 1000.0 nM
[8] = target: Serine/threonine-protein kinase Chk1 (Homo sapiens) (UniProt O14757); settings: Compound concentration 1000.0 nM
[9] = target: D(3) dopamine receptor (Homo sapiens) (UniProt P35462); settings: Compound concentration 10.0 uM
[10] = target: Ribosomal protein S6 kinase alpha-5 (Homo sapiens) (UniProt O75582); settings: Compound concentration 1000.0 nM; remark: listed apart in the source
[11] = system: Fibroblast growth factor receptor 3 (Homo sapiens), P22607 [G697C]; settings: Compound concentration 1000.0 nM
[12] = target: Delta-type opioid receptor (Homo sapiens) (UniProt P41143); settings: Compound concentration 10.0 uM
[13] = target: Mitogen-activated protein kinase kinase kinase kinase 2 (Homo sapiens) (UniProt Q12851); settings: Compound concentration 1000.0 nM
[14] = target: Mitogen-activated protein kinase 1 (Homo sapiens) (UniProt P28482); settings: Compound concentration 1000.0 nM
[15] = target: Dual specificity testis-specific protein kinase 1 (Homo sapiens) (UniProt Q15569); settings: Compound concentration 1000.0 nM
[16] = target: Maternal embryonic leucine zipper kinase (Homo sapiens) (UniProt Q14680); settings: Compound concentration 1000.0 nM
[17] = target: Serine/threonine-protein kinase WNK4 (Homo sapiens) (UniProt Q96J92); settings: Compound concentration 1000.0 nM
[18] = system: Phosphatidylinositol 4,5-bisphosphate 3-kinase catalytic subunit alpha isoform (Homo sapiens), P42336 [M1043I]; settings: Compound concentration 1000.0 nM
[19] = system: Epidermal growth factor receptor (Homo sapiens), P00533 [L858R,T790M]; settings: Compound concentration 1000.0 nM
[20] = target: Phosphatidylinositol 4-phosphate 5-kinase type-1 alpha (Homo sapiens) (UniProt Q99755); settings: Compound concentration 1000.0 nM
[21] = target: Serine/threonine-protein kinase 38-like (Homo sapiens) (UniProt Q9Y2H1); settings: Compound concentration 1000.0 nM
[22] = target: Serine/threonine-protein kinase MARK1 (Homo sapiens) (UniProt Q9P0L2); settings: Compound concentration 1000.0 nM
[23] = target: Dual specificity mitogen-activated protein kinase kinase 5 (Homo sapiens) (UniProt Q13163); settings: Compound concentration 1000.0 nM
[24] = target: Mitogen-activated protein kinase kinase kinase kinase 3 (Homo sapiens) (UniProt Q8IVH8); settings: Compound concentration 1000.0 nM
[25] = system: Receptor-type tyrosine-protein kinase FLT3 (Homo sapiens), P36888 [D835V]; settings: Compound concentration 1000.0 nM
[26] = target: Receptor tyrosine-protein kinase erbB-2 (Homo sapiens) (UniProt P04626); settings: Compound concentration 1000.0 nM
[27] = target: Fibroblast growth factor receptor 2 (Homo sapiens) (UniProt P21802); settings: Compound concentration 1000.0 nM
[28] = target: TGF-beta receptor type-2 (Homo sapiens) (UniProt P37173); settings: Compound concentration 1000.0 nM
[29] = target: Serine/threonine-protein kinase BRSK1 (Homo sapiens) (UniProt Q8TDC3); settings: Compound concentration 1000.0 nM
[30] = target: Dual specificity mitogen-activated protein kinase kinase 1 (Homo sapiens) (UniProt Q02750); settings: Compound concentration 1000.0 nM
[31] = target: Serine/threonine-protein kinase NIM1 (Homo sapiens) (UniProt Q8IY84); settings: Compound concentration 1000.0 nM
[32] = target: Phosphatidylinositol 5-phosphate 4-kinase type-2 beta (Homo sapiens) (UniProt P78356); settings: Compound concentration 1000.0 nM
[33] = target: Macrophage colony-stimulating factor 1 receptor (Homo sapiens) (UniProt P07333); settings: Compound concentration 1000.0 nM
[34] = target: Cyclin-dependent kinase 17 (Homo sapiens) (UniProt Q00537); settings: Compound concentration 1000.0 nM
[35] = target: G protein-coupled receptor kinase 4 (Homo sapiens) (UniProt P32298); settings: Compound concentration 1000.0 nM
[36] = target: Tyrosine-protein kinase receptor TYRO3 (Homo sapiens) (UniProt Q06418); settings: Compound concentration 1000.0 nM
[37] = target: Serine/threonine-protein kinase Nek7 (Homo sapiens) (UniProt Q8TDX7); settings: Compound concentration 1000.0 nM
[38] = target: Serine/threonine-protein kinase PknB (Mycobacterium tuberculosis) (UniProt P9WI81); settings: Compound concentration 1000.0 nM
[39] = target: Ephrin type-A receptor 4 (Homo sapiens) (UniProt P54764); settings: Compound concentration 1000.0 nM
[40] = system: Receptor-type tyrosine-protein kinase FLT3 (Homo sapiens), P36888 [UNDEFINED MUTATION]; settings: Compound concentration 1000.0 nM
[41] = target: Cyclin-dependent kinase 8 (Homo sapiens) (UniProt P49336); settings: Compound concentration 1000.0 nM
[42] = target: Aurora kinase C (Homo sapiens) (UniProt Q9UQB9); settings: Compound concentration 1000.0 nM
[43] = target: Interleukin-1 receptor-associated kinase 3 (Homo sapiens) (UniProt Q9Y616); settings: Compound concentration 1000.0 nM
[44] = system: Leucine-rich repeat serine/threonine-protein kinase 2 (Homo sapiens), Q5S007 [G2019S]; settings: Compound concentration 1000.0 nM
[45] = target: Cyclin-dependent kinase 9 (Homo sapiens) (UniProt P50750); settings: Compound concentration 1000.0 nM
Chain of Cyclin-dependent kinase 9 (Homo sapiens) (P50750 whole entry): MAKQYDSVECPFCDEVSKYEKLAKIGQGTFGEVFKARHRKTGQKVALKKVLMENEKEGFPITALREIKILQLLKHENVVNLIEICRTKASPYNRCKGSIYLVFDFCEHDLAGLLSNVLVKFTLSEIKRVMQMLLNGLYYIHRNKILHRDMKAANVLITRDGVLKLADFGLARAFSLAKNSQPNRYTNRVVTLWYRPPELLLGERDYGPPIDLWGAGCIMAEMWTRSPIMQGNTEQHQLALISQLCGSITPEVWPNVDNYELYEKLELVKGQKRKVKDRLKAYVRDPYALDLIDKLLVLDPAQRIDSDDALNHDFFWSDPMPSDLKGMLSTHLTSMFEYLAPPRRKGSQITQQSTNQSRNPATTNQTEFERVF

Chain of Ribosomal protein S6 kinase alpha-5 (Homo sapiens) (O75582 whole entry, looked up): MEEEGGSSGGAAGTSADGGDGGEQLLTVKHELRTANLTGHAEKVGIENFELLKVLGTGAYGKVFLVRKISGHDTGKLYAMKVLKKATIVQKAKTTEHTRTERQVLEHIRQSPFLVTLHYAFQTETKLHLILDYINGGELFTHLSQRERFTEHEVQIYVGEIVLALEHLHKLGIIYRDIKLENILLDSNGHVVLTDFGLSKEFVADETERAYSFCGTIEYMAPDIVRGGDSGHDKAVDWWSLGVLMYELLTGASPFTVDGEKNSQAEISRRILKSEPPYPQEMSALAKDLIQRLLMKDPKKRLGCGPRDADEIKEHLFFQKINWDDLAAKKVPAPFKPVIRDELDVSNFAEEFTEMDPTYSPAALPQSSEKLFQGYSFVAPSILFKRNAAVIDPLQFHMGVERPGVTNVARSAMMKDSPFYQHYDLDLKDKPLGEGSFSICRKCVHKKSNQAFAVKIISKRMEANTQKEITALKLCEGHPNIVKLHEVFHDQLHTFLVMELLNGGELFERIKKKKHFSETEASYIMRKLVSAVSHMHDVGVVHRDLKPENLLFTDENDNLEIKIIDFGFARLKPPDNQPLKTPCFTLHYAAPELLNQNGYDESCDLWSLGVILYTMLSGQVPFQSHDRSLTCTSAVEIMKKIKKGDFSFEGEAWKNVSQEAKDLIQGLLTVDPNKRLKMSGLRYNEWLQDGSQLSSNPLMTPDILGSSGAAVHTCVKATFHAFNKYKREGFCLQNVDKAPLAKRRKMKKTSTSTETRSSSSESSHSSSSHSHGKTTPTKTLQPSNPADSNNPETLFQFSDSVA
Chain of Serine/threonine-protein kinase Sgk1 (Homo sapiens) (O00141 whole entry): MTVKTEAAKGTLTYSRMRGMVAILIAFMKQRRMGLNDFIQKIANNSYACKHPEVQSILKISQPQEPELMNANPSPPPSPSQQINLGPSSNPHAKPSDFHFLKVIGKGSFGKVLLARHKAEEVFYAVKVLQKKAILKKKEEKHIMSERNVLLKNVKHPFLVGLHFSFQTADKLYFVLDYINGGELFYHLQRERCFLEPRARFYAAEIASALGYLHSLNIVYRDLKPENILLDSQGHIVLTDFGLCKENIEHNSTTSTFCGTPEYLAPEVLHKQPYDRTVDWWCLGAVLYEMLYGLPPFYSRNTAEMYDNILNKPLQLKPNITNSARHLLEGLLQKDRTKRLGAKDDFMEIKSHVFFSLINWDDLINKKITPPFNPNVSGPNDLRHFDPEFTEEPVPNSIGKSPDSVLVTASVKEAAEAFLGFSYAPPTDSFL
Chain of Macrophage colony-stimulating factor 1 receptor (Homo sapiens) (P07333 whole entry): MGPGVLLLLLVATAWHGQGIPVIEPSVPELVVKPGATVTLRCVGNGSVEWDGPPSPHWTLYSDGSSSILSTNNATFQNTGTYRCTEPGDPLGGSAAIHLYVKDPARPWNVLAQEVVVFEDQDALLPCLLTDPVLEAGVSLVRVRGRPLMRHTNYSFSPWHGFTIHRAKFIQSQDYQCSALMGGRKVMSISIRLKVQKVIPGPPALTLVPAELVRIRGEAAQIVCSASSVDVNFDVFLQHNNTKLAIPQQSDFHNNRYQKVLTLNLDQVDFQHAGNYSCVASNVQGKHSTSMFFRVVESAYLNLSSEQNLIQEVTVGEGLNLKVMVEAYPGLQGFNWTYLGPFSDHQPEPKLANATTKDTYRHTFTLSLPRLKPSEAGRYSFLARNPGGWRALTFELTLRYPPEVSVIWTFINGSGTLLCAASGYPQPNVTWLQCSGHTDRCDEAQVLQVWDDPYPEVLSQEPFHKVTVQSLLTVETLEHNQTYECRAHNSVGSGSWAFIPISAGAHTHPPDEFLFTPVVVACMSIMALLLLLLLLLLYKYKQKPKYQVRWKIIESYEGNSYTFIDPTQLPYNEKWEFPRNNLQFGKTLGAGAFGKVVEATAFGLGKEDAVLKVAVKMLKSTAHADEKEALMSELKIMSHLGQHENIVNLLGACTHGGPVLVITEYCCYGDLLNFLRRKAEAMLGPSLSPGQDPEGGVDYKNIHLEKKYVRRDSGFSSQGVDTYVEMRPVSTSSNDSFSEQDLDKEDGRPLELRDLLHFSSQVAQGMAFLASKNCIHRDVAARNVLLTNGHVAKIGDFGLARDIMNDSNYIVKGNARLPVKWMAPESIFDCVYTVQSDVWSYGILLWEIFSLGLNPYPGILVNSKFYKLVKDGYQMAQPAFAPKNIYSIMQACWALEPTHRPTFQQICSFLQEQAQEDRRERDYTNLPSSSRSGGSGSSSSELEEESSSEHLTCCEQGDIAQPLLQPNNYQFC
Chain of Serine/threonine-protein kinase WNK4 (Homo sapiens) (Q96J92 whole entry, canonical isoform): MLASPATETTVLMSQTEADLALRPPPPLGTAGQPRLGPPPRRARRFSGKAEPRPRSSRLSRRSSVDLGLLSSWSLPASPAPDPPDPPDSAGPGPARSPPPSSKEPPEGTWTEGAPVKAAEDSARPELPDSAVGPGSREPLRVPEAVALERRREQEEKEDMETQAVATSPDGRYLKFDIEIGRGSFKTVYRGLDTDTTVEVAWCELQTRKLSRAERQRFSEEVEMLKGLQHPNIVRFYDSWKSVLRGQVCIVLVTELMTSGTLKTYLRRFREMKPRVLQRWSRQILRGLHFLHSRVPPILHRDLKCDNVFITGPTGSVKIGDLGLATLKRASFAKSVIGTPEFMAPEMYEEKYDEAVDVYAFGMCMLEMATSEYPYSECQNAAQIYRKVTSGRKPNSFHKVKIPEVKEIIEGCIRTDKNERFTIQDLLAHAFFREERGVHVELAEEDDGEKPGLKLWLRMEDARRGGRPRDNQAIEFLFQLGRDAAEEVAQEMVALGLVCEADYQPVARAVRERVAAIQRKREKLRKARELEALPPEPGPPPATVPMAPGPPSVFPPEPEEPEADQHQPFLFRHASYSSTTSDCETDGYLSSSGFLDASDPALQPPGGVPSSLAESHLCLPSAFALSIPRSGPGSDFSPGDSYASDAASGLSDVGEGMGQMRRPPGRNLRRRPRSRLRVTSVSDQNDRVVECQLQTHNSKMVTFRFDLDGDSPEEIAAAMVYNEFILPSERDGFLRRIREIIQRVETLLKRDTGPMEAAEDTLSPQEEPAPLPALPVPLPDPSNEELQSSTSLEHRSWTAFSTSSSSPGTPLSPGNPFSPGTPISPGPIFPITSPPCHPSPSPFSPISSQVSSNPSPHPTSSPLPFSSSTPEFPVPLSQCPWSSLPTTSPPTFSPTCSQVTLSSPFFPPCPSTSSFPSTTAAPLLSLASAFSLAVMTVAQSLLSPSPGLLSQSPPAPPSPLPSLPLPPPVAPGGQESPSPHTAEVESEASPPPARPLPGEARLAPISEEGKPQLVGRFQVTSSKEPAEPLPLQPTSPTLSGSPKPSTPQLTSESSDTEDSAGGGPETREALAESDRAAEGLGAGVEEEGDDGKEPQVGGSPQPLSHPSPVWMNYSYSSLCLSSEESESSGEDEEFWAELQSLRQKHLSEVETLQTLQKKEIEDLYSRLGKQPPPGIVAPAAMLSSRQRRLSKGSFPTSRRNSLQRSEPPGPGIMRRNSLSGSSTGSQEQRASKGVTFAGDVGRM
Chain of Fibroblast growth factor receptor 2 (Homo sapiens) (P21802 22-821 limits assumed): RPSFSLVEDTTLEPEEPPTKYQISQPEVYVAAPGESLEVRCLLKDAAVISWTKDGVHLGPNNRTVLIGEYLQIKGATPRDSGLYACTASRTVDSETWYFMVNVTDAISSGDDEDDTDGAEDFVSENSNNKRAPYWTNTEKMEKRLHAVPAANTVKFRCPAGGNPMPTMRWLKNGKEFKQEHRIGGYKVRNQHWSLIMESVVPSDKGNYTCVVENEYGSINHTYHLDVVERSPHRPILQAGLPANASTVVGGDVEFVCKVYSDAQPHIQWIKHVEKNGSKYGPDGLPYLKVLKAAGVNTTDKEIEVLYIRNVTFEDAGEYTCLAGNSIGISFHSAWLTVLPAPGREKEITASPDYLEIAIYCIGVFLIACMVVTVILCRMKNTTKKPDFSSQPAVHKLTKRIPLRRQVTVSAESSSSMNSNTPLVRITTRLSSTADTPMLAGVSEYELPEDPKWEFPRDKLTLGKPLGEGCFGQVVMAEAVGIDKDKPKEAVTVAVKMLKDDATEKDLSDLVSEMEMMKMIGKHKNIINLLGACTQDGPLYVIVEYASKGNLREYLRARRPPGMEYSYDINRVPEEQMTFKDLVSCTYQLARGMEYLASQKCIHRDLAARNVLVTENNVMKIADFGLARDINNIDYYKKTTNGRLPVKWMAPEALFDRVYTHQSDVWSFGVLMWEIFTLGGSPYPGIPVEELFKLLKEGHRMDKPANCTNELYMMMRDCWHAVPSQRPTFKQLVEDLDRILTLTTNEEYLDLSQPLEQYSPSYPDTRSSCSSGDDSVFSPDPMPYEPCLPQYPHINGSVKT
Chain of Phosphatidylinositol 5-phosphate 4-kinase type-2 beta (Homo sapiens) (P78356 whole entry): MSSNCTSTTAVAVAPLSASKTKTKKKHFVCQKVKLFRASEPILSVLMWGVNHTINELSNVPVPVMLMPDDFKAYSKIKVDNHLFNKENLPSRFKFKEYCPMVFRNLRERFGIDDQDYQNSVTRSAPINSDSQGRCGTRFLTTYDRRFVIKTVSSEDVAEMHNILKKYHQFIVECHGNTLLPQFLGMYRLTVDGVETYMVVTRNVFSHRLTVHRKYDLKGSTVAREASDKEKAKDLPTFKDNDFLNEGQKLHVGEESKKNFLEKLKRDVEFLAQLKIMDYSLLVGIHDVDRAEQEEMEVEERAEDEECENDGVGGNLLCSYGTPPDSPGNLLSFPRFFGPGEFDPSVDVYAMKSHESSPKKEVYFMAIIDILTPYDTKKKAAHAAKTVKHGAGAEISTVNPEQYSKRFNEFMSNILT

O=C(N[C@H]1CCCCC/C=C\C2C[C@@]2(C(=O)O)NC(=O)[C@@H]2C[C@@H](Oc3ccncc3)CN2C1=O)OC1CCCC1 (stereo not given in full) [BI 1675]
inactive: residual activity [1] 89% | residual activity [2] 99% | residual activity [3] 86% | residual activity [4] 100% | residual activity [5] 89% | residual activity [6] 100% | residual activity [7] 97% | residual activity [8] 79% | inhibition [9] 12.7% | residual activity [10] 78% | residual activity [11] 100% | inhibition [12] -2.02% | residual activity [13] 100% | residual activity [14] 72% | residual activity [15] 97% | residual activity [16] 84% | residual activity [17] 100% | residual activity [18] 84% | residual activity [19] 98% | residual activity [20] 99% | residual activity [21] 80% | residual activity [22] 100% | residual activity [23] 89% | residual activity [24] 100% | residual activity [25] 92% | residual activity [26] 100% | residual activity [27] 79% | residual activity [28] 85% | residual activity [29] 80% | residual activity [30] 92% | residual activity [31] 82% | residual activity [32] 100% | residual activity [33] 95% | residual activity [34] 89% | residual activity [35] 80% | residual activity [36] 100% | residual activity [37] 100% | residual activity [38] 93% | residual activity [39] 93% | residual activity [40] 88% | residual activity [41] 66% | residual activity [42] 92% | residual activity [43] 72% | residual activity [44] 86% | residual activity [45] 91%

COc1ccc2c(O[C@@H]3C[C@H]4C(=O)N[C@]5(C(=O)O)CC5/C=C\CCCCC[C@H](NC(=O)OC5CCCC5)C(=O)N4C3)cc(-c3csc(NC(=O)C(C)C)n3)nc2c1C (stereo not given in full) [BI 1230]
active: residual activity [16] 44% | residual activity [21] 43%
inactive: residual activity [1] 89% | residual activity [2] 100% | residual activity [3] 95% | residual activity [4] 81% | residual activity [5] 100% | residual activity [6] 100% | residual activity [7] 100% | residual activity [8] 100% | inhibition [9] -9.2% | residual activity [10] 100% | residual activity [11] 88% | inhibition [12] 45.8% | residual activity [13] 100% | residual activity [14] 89% | residual activity [15] 91% | residual activity [17] 91% | residual activity [18] 88% | residual activity [19] 100% | residual activity [20] 98% | residual activity [22] 100% | residual activity [23] 71% | residual activity [24] 100% | residual activity [25] 79% | residual activity [26] 97% | residual activity [27] 96% | residual activity [28] 93% | residual activity [29] 85% | residual activity [30] 85% | residual activity [31] 83% | residual activity [32] 100% | residual activity [33] 71% | residual activity [34] 100% | residual activity [35] 67% | residual activity [36] 100% | residual activity [37] 100% | residual activity [38] 94% | residual activity [39] 100% | residual activity [40] 80% | residual activity [41] 68% | residual activity [42] 96% | residual activity [43] 97% | residual activity [44] 91% | residual activity [45] 83%
